{"source": "ChEMBL document CHEMBL1201862", "about": "“PubChem BioAssay data set” (2004)", "key": {"[1]": {"target": "Glyceraldehyde-3-phosphate dehydrogenase (Homo sapiens, UniProt P04406)", "sequence (P04406 whole entry)": "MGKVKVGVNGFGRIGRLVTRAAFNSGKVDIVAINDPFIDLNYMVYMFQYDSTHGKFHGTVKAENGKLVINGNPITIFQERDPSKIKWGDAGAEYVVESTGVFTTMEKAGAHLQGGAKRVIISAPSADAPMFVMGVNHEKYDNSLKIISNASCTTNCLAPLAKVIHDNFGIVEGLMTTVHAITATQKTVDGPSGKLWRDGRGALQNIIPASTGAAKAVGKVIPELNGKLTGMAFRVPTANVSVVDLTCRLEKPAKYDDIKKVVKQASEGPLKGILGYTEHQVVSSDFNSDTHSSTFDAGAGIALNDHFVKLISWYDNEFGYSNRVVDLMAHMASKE"}, "[2]": {"target": "T1, Alkaline phosphatase, tissue-nonspecific isozyme (Homo sapiens, UniProt P05186)", "T1 sequence (P05186 whole entry)": "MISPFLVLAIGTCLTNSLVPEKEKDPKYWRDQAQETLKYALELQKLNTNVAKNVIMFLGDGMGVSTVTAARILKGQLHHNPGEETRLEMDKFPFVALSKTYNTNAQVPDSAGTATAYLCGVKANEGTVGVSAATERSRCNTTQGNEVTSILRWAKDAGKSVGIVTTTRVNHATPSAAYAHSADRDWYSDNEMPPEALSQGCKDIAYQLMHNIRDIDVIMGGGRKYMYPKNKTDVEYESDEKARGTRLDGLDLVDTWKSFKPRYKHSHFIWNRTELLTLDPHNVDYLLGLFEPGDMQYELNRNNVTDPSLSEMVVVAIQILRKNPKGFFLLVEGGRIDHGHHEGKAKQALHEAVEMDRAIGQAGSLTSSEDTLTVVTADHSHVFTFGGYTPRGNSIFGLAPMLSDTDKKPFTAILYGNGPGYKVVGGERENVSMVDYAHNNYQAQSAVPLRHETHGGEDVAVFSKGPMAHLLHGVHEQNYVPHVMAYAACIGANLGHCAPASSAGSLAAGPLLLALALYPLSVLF", "experiment": "human TNAP enzyme inhibitors, SAR follow-up, biochemical, luminescent, dose response (AID 1056)"}, "[3]": {"target": "Alkaline phosphatase, placental type (Homo sapiens, UniProt P05187)", "sequence (P05187 whole entry)": "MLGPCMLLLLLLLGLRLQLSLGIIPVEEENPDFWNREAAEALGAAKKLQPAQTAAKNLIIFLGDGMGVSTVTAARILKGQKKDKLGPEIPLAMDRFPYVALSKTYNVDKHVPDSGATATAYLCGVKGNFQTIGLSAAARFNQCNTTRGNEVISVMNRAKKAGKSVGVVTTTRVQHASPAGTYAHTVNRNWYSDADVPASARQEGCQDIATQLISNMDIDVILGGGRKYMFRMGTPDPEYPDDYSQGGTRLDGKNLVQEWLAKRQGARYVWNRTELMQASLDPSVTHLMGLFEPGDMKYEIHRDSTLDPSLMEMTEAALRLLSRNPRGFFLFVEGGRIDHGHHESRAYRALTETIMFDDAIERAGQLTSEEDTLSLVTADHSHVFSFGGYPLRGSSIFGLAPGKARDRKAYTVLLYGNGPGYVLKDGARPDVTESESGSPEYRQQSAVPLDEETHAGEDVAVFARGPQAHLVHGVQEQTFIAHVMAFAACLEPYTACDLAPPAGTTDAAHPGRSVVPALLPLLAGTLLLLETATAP", "experiment": "PLAP enzyme inhibitors, confirmation, biochemical, luminescence (AID 1512)", "assay_type": "functional"}, "[4]": {"target": "Melanin-concentrating hormone receptor 1 (Homo sapiens, UniProt Q99705)", "sequence (Q99705 whole entry)": "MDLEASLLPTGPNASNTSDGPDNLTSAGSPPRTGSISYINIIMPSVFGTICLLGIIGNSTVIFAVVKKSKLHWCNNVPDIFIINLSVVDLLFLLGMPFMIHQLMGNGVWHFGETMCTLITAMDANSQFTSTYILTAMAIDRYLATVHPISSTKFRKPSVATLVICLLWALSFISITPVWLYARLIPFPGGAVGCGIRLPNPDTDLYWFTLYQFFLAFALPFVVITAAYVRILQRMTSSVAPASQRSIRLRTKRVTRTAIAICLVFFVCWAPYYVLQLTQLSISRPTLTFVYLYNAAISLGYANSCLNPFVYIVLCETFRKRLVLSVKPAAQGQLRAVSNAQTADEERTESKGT", "experiment": "Late-stage fluorescence-based counterscreen for antagonists of the G-protein coupled receptor 7 (GPR7): cell-based dose response assay to identify antagonists of the melanin-concentrating hormone receptor 1 (MCHR1). [Related pubchem assays (depositor defined):AID1861, AID1880, AID1952, AID2148, AID2251, AID2257, AID485339]", "assay_type": "functional"}, "[5]": {"target": "Neuropeptides B/W receptor type 1 (Homo sapiens, UniProt P48145)", "sequence (P48145 whole entry)": "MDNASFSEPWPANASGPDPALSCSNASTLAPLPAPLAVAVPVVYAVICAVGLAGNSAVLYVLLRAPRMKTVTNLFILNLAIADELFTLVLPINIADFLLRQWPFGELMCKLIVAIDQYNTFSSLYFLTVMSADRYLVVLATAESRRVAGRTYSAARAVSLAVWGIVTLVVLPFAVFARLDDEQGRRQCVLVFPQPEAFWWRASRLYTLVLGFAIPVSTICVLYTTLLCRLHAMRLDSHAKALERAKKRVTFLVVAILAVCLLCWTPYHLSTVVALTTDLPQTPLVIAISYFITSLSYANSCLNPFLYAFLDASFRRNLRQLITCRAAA", "experiment": "GPR7 antagonist potency, late-stage follow-up, cell-based, fluorescence, dose response (AID 463251)", "assay_type": "functional"}, "INS1": {"tested_on": "INS1", "experiment": "beta cell apoptosis inhibitors, cytokine rescue, dose response, luminescence, retest (AID 449756);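 also: cell death triggered by IL-1 beta plus TNF-alpha plus IFN-gamma mixture; protective hits raise ATP signal compared with cytokine alone wells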", "assay_type": "functional, cell-based", "conditions": "Rattus norvegicus"}, "Troponin, cardiac muscle": {"target": "Troponin, cardiac muscle (Homo sapiens, UniProt P19429+P45379+P63316)", "experiment": "inhibitors of cardiac thin filament calcium sensitivity, dose response, biochemical, fluorescence, cardiac regulated thin filaments, triplicate IC50 (AID 504742)", "assay_type": "protein-complex assay"}, "Protein S100-A4": {"target": "Protein S100-A4 (Homo sapiens, UniProt P26447)", "sequence (P26447 whole entry)": "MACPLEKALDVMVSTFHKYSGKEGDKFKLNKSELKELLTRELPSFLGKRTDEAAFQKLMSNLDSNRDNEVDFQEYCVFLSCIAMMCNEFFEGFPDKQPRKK", "experiment": "S100A4-myosin IIA binding inhibitor potency, dose response, biochemical, fluorescence polarization, cherry-picked hits (AID 687001)", "assay_type": "functional"}, "HEK293 [6]": {"tested_on": "HEK293", "experiment": "optical interference in Abeta FP readout, dose response, artefact control for IDE activator project, biochemical, fluorescence polarization (AID 588442)", "assay_type": "functional, cell-based", "conditions": "Homo sapiens"}, "ORF 73": {"target": "ORF 73 (Human herpesvirus 8, UniProt O40947)", "sequence (O40947 whole entry)": "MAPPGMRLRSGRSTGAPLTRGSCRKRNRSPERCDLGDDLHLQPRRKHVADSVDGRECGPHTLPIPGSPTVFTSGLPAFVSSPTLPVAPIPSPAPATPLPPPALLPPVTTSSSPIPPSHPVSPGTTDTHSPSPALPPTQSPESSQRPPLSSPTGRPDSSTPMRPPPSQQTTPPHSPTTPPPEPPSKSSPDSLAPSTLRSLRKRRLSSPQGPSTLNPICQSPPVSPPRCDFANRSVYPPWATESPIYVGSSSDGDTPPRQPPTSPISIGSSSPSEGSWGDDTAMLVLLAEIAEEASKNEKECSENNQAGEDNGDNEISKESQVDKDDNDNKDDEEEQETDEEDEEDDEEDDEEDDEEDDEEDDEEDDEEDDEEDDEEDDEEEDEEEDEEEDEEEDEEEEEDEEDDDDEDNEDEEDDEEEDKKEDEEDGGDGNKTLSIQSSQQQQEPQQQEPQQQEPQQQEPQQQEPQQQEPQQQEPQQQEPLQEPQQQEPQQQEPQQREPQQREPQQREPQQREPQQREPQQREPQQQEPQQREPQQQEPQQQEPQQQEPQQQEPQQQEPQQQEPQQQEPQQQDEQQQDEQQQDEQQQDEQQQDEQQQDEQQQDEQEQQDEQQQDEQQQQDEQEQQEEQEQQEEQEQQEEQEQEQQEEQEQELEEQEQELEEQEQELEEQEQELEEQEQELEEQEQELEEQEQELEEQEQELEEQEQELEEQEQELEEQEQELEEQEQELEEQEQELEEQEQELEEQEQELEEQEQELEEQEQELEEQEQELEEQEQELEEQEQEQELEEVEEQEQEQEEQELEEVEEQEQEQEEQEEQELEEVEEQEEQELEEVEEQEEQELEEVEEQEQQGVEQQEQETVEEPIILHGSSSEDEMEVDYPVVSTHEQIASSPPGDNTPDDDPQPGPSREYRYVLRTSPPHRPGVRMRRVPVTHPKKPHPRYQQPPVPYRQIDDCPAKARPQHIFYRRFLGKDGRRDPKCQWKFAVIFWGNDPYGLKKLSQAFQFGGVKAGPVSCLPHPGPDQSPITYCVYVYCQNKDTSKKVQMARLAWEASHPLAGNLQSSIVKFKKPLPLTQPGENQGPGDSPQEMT", "experiment": "inhibitors of C-LANA binding to LBS DNA, dose response, biochemical, fluorescence polarization, cherry-picked samples (AID 504725);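 also: fluorescence polarization of a labeled DNA duplex reporting LANA DNA binding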", "parameters": "species or system Human gammaherpesvirus 8"}, "[7]": {"target": "Aryl hydrocarbon receptor (Homo sapiens, UniProt P35869)", "sequence (P35869 whole entry)": "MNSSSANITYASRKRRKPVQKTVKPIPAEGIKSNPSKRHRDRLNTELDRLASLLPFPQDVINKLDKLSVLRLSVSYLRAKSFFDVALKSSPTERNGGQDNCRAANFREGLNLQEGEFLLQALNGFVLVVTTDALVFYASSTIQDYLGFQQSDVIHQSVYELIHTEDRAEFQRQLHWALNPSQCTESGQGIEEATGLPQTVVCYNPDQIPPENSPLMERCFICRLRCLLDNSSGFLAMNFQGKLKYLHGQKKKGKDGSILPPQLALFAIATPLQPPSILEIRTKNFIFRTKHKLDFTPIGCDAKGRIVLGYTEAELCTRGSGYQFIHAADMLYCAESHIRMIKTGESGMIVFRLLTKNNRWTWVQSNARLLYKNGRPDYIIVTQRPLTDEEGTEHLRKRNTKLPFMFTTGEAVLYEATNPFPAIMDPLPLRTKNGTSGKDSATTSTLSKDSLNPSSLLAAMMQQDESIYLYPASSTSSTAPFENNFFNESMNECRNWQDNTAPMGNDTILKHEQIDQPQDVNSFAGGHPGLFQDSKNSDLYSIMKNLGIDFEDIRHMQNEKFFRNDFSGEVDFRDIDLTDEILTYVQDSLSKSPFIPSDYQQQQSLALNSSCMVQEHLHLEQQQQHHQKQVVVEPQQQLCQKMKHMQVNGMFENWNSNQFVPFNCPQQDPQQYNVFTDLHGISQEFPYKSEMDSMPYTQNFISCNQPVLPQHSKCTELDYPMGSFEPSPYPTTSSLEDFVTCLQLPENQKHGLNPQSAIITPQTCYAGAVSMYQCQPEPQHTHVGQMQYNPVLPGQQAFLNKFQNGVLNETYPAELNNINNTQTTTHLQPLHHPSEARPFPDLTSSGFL", "conditions": "Potency"}, "fMet-Leu-Phe receptor": {"target": "T2, fMet-Leu-Phe receptor (Homo sapiens, UniProt P21462)", "T2 sequence (P21462 whole entry)": "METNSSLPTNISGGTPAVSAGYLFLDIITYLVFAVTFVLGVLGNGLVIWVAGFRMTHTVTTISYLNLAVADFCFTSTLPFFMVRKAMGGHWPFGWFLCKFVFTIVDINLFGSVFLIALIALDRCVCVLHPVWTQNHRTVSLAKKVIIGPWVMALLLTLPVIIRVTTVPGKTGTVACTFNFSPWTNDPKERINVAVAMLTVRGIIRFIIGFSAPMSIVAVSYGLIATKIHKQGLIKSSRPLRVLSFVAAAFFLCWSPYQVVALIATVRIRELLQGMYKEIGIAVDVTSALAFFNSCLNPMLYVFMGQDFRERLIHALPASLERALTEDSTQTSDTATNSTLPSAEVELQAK", "experiment": "FPR ligands, dose response (AID 519)", "assay_type": "functional"}, "HEK293 [8]": {"tested_on": "HEK293", "experiment": "HEK cell cytotoxicity by LDH release, dose response, cytotoxicity control for IDE activator project, fluorescence, HEK cells (AID 588440);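 also: cytotoxicity by LDH release measuring loss of membrane integrity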", "assay_type": "functional, cell-based", "conditions": "Homo sapiens"}, "14-3-3 protein gamma": {"target": "14-3-3 protein gamma (Homo sapiens, UniProt P61981)", "sequence (P61981 whole entry)": "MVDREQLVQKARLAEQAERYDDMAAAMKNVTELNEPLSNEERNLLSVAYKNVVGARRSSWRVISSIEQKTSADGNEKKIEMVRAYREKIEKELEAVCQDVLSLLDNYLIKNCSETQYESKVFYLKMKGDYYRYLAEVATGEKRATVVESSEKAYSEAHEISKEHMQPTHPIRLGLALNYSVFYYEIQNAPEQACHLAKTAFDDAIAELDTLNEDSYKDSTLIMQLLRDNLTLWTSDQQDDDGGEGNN", "experiment": "modulators of 14-3-3 gamma client binding – dose response (AID 711)", "assay_type": "functional"}, "Insulin-degrading enzyme [9]": {"target": "T3, Insulin-degrading enzyme (Homo sapiens, UniProt P14735)", "T3 sequence (P14735 whole entry)": "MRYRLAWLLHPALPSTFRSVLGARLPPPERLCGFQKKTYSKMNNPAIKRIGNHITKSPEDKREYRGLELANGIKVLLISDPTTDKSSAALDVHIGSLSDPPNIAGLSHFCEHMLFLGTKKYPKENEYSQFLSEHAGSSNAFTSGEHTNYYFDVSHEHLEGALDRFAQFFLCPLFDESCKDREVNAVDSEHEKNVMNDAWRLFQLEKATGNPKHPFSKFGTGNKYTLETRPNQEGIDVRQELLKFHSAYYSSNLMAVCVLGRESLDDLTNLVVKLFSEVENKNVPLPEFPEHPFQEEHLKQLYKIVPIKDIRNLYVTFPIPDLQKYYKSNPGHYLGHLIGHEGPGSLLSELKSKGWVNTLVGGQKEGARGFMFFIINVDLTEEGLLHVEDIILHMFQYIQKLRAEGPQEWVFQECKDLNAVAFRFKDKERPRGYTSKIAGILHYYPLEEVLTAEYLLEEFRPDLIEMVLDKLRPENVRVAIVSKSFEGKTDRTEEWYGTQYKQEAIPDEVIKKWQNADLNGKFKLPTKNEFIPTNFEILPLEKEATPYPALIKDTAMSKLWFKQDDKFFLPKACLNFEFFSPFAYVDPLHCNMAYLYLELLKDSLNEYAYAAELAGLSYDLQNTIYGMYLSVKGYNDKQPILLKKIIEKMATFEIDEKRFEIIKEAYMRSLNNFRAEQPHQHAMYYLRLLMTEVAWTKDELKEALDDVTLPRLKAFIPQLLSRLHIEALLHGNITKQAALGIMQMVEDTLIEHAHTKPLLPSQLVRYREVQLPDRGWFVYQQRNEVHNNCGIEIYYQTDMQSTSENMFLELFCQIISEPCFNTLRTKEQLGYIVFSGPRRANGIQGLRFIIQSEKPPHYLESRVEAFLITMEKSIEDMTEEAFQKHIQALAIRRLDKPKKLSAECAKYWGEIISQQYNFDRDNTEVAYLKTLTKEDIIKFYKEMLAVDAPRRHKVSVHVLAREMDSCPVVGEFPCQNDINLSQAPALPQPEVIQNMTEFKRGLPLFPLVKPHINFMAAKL", "experiment": "activators of endogenous IDE in HEK cells, dose response, cell-based, fluorescence polarization (AID 588439)", "assay_type": "functional"}, "Paired box protein Pax-8": {"target": "Paired box protein Pax-8 (Homo sapiens, UniProt Q06710)", "sequence (Q06710 whole entry)": "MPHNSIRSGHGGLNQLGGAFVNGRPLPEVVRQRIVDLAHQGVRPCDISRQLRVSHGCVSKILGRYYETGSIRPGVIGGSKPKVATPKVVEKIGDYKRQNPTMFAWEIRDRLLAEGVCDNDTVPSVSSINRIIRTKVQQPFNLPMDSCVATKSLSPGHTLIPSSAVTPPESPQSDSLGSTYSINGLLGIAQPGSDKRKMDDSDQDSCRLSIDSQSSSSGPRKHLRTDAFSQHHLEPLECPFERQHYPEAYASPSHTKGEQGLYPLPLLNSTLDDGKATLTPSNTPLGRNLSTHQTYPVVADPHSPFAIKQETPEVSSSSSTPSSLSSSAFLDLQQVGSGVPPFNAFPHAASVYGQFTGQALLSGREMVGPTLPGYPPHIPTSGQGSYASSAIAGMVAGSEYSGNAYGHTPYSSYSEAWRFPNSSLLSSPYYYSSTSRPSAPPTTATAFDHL", "experiment": "inhibitors of PAX8-driven TPO luciferase reporter, dose response, RMG-I cells, cherry-pick (AID 687027);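 also: luciferase reporter driven by Pax8 target thyroperoxidase promoter measured by SteadyGlo luminescence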", "assay_type": "functional, cell-based"}, "Nonstructural protein 1": {"target": "Nonstructural protein 1 (Influenza A virus, UniProt Q194T2)", "sequence (Q194T2 whole entry)": "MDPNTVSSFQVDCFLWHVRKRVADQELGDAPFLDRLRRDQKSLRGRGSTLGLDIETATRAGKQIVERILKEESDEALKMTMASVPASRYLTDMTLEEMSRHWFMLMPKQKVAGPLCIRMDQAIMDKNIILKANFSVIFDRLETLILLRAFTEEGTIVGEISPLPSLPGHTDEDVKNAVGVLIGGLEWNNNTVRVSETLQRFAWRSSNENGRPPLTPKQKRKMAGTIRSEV", "assay_type": "functional, Influenza A virus (A/California/07/2009(H1N1))"}, "Insulin-degrading enzyme [10]": {"target": "T3, Insulin-degrading enzyme", "experiment": "activators of recombinant IDE enzyme, dose response, counter-screen for IDE activator project, biochemical, fluorescence polarization (AID 588681)"}, "HeLa": {"tested_on": "HeLa", "experiment": "HeLa cell cytotoxicity, dose response, cytotoxicity control, 24 h, cherry-picked samples (AID 504726);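 also: potency for cytotoxicity as loss of luminescence signal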", "assay_type": "functional, cell-based", "conditions": "Homo sapiens"}}, "note": "Where a name gives a salt, the structure may show the parent alone. The source made the active and inactive calls."}
{"smiles": "COc1ccc(-c2cc(-c3ccc4ccccc4c3O)n[nH]2)cc1", "values": [{"measurement": "IC50", "setting": "[1]", "value": "> 100 µM (not active)"}, {"measurement": "IC50", "setting": "[2]", "value": "> 100 µM (inactive)"}, {"measurement": "IC50", "setting": "[3]", "value": "> 100 µM (inactive)"}]}
{"smiles": "Cc1ccc(-n2ncc(Cl)c(Oc3ccc(C(F)(F)F)cc3)c2=O)cc1", "values": [{"measurement": "IC50", "setting": "[4]", "value": "5.5 µM (active)"}, {"measurement": "IC50", "setting": "[5]", "value": "2.2 µM (active)"}]}
{"smiles": "COc1cccc(/C=N/Nc2nc3ccccc3n3cnnc23)c1O", "values": [{"measurement": "AC50", "setting": "INS1", "value": "1.84 µM (active)"}, {"measurement": "IC50", "setting": "Troponin, cardiac muscle", "value": "7.6 µM (active)"}]}
{"smiles": "COc1cccc2c1C(=O)c1c(O)c3c(c(O)c1C2=O)C[C@@](O)(C(C)=O)C[C@@H]3O[C@H]1C[C@H](N)[C@H](O)[C@H](C)O1", "note": "[DAUNORUBICIN HYDROCHLORIDE]", "values": [{"measurement": "AC50", "setting": "Protein S100-A4", "value": "0.235 µM (active)"}, {"measurement": "EC50", "setting": "HEK293 [6]", "value": "> 54.7 µM (inactive)"}, {"measurement": "AC50", "setting": "ORF 73", "value": "2.36 µM (active)"}, {"measurement": "AC50", "setting": "[7]", "value": "12.6 µM (inconclusive)"}, {"measurement": "Ki", "setting": "fMet-Leu-Phe receptor", "value": "> 66.7 µM (inactive)"}, {"measurement": "IC50", "setting": "HEK293 [8]", "value": "17.7 µM (inactive)"}, {"measurement": "IC50", "setting": "14-3-3 protein gamma", "value": "< 0.781 µM (active)"}, {"measurement": "EC50", "setting": "Insulin-degrading enzyme [9]", "value": "> 54.7 µM (inactive)"}, {"measurement": "AC50", "setting": "Paired box protein Pax-8", "value": "1.55 µM (active)"}, {"measurement": "IC50", "setting": "Nonstructural protein 1", "value": "32.7 µM (active)"}, {"measurement": "EC50", "setting": "Insulin-degrading enzyme [10]", "value": "> 54.7 µM (inactive)"}, {"measurement": "AC50", "setting": "HeLa", "value": "1.73 µM (active)"}]}
